Laboratory results: the supplement of paper PMC10627819

Columns and labels:
S. aureus DSM 20231 = assay: Bliss interaction score (quartile over a dose matrix) (fitness difference); higher = more antagonism (negative = synergy)
Method in brief: (§1)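 At entry into stationary phase, OD595 was recorded and divided by the robust mean of the no-drug wells on that plate, with any value above 1 set to 1. This gives the fitness measure used throughout. Single-drug fitness was inferred from combination data, and the Bliss score, observed minus product-expected fitness, is shown as quartiles across technical, biological and donor/recipient replicates.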

S. aureus Newman = assay: as above
Method in brief: as §1

B. subtilis 168 [1] = assay: as above
Method in brief: as §1

S. pneumoniae D39V [2] = assay: as above
Method in brief: as §1

S. pneumoniae D39V [3] = assay: fitness (endpoint OD595 vs no drug) (fraction); higher = more growth
Method in brief: (§2)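 At 37 °C, bacteria in TSB, LB Lennox or CY were grown in 384-well plates from a starting OD595 of 0.01. OD595 was measured every 30 min for 14 h, with the first reading used as background. Fitness is the optical density at the switch to stationary phase as a fraction of the robust mean of no-drug control wells, capped at 1.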

B. subtilis 168 [4] = assay: as above
Method in brief: as §2
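Wherever Bliss interaction score (quartile over a dose matrix) is given: first quartile when negative (synergy) and third quartile when positive (antagonism).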

CC(=O)NC[C@H]1CN(c2ccc(N3CCOCC3)c(F)c2)C(=O)O1 [Linezolid] + Clc1ccc(COC(Cn2ccnc2)c2ccc(Cl)cc2Cl)c(Cl)c1 [Miconazole]
Settings | Bliss interaction score
B. subtilis 168 [1] | 0.047
S. aureus DSM 20231 | -0.0366
S. aureus Newman | -0.0524
S. pneumoniae D39V [2] | 0.199

fitness, S. pneumoniae D39V [3]
Settings | first compound 0.105 µg/mL | first compound 0.2 µg/mL | first compound 0.21 µg/mL | first compound 0.4 µg/mL | first compound 0.42 µg/mL | first compound 0.8 µg/mL
partner 1.073 µg/mL | – | 0.924 | – | 0.751 | – | 0.431
partner 1.25 µg/mL | 0.835 | – | 0.653 | – | 0.566 | –
partner 2.145 µg/mL | – | 0.929 | – | 0.765 | – | 0.428
partner 2.5 µg/mL | 0.807 | – | 0.691 | – | 0.524 | –
partner 4.29 µg/mL | – | 0.957 | – | 0.804 | – | 0.54
partner 5 µg/mL | 0.842 | – | 0.74 | – | 0.502 | –

CO[C@H]1/C=C/O[C@@]2(C)Oc3c(C)c(O)c4c(O)c(c(/C=N/N5CCN(C)CC5)c(O)c4c3C2=O)NC(=O)/C(C)=C\C=C\[C@H](C)[C@H](O)[C@@H](C)[C@@H](O)[C@@H](C)[C@H](OC(C)=O)[C@@H]1C [Rifampicin] + CC1=C\[C@@H](O)CC(=O)Cc2nc(co2)C(=O)N2CCC=C2C(=O)O[C@H](C(C)C)[C@H](C)/C=C/C(=O)NC\C=C\1 [Virginiamycin M1]
Settings | Bliss interaction score
B. subtilis 168 [1] | -0.0938
S. aureus DSM 20231 | 0.0924
S. aureus Newman | -0.0218
S. pneumoniae D39V [2] | 0.111

S. pneumoniae D39V [3], one replicate
Settings | fitness
first compound 0.025 µg/mL, partner 0.5 µg/mL | 0.876
first compound 0.025 µg/mL, partner 1 µg/mL | 0.905
first compound 0.025 µg/mL, partner 2 µg/mL | 0.822
first compound 0.05 µg/mL, partner 0.15 µg/mL | ≥ 1
first compound 0.05 µg/mL, partner 0.3 µg/mL | 0.993
first compound 0.1 µg/mL, partner 0.15 µg/mL | 0.891
first compound 0.1 µg/mL, partner 0.3 µg/mL | 0.884
first compound 0.2 µg/mL, partner 0.15 µg/mL | 0.267
first compound 0.2 µg/mL, partner 0.3 µg/mL | 0.203

S. pneumoniae D39V [3], first compound 0.2 µg/mL
Settings | fitness
partner 0.5 µg/mL | 0.194
partner 1 µg/mL | 0.0581
partner 2 µg/mL | 0.129

CO[C@H]1/C=C/O[C@@]2(C)Oc3c(C)c(O)c4c(O)c(c(/C=N/N5CCN(C)CC5)c(O)c4c3C2=O)NC(=O)/C(C)=C\C=C\[C@H](C)[C@H](O)[C@@H](C)[C@@H](O)[C@@H](C)[C@H](OC(C)=O)[C@@H]1C [Rifampicin] + Cc1cc(NS(=O)(=O)c2ccc(N)cc2)no1 [Sulfamethoxazol]
Settings | Bliss interaction score
B. subtilis 168 [1] | -0.052
S. aureus DSM 20231 | -0.0278
S. aureus Newman | -0.0257
S. pneumoniae D39V [2] | 0.0639

S. pneumoniae D39V [3], first compound 0.025 µg/mL, one replicate
Settings | fitness
partner 1 µg/mL | 0.837
partner 2 µg/mL | 0.831
partner 4 µg/mL | 0.828

fitness, S. pneumoniae D39V [3]
Settings | partner 1 µg/mL | partner 2 µg/mL | partner 4 µg/mL
first compound 0.05 µg/mL | 0.933 | 0.93 | 0.853
first compound 0.2 µg/mL | 0.0772 | 0.0834 | 0.104

CC(=O)NC[C@H]1CN(c2ccc(N3CCOCC3)c(F)c2)C(=O)O1 [Linezolid] + C/C(=C\C(=O)OCCCCCCCCC(=O)O)C[C@@H]1OC[C@H](C[C@@H]2O[C@H]2[C@@H](C)[C@H](C)O)[C@@H](O)[C@H]1O [Pseudomonic acid]
Settings | Bliss interaction score
B. subtilis 168 [1] | -0.0357
S. aureus DSM 20231 | 0.0202
S. aureus Newman | 0.0446
S. pneumoniae D39V [2] | 0.121

fitness, S. pneumoniae D39V [3]
Settings | first compound 0.2 µg/mL | first compound 0.4 µg/mL | first compound 0.42 µg/mL | first compound 0.8 µg/mL
partner 0.03 µg/mL | 0.862 | 0.731 | 0.275 | 0.411
partner 0.06 µg/mL | 0.796 | 0.753 | 0.233 | –
partner 0.12 µg/mL | 0.626 | 0.611 | 0.183 | 0.427

CC[C@H](C)[C@H](N)C1=N[C@H](C(=O)N[C@@H](CC(C)C)C(=O)N[C@H](CCC(=O)O)C(=O)N[C@H](C(=O)N[C@H]2CCCCNC(=O)[C@H](CC(N)=O)NC(=O)[C@@H](CC(=O)O)NC(=O)[C@H](Cc3cnc[nH]3)NC(=O)[C@@H](Cc3ccccc3)NC(=O)[C@H]([C@@H](C)CC)NC(=O)[C@@H](CCCN)NC2=O)[C@@H](C)CC)CS1 [Bacitracin] + CC(=O)NC[C@H]1CN(c2ccc(N3CCOCC3)c(F)c2)C(=O)O1 [Linezolid]
main component drawn
Settings | Bliss interaction score
B. subtilis 168 [1] | -0.0832
S. aureus DSM 20231 | -0.0504
S. aureus Newman | -0.087
S. pneumoniae D39V [2] | -0.0719

B. subtilis 168 [4], partner 0.0625 µg/mL, one replicate, main component drawn
Settings | fitness
first compound 37.5 µg/mL | 0.823
first compound 75 µg/mL | 0.749
first compound 150 µg/mL | 0.3

fitness, B. subtilis 168 [4], main component drawn
Settings | first compound 37.5 µg/mL | first compound 75 µg/mL | first compound 150 µg/mL
partner 0.125 µg/mL | 0.609 | – | –
partner 0.25 µg/mL | – | 0.13 | 0.0363
partner 0.5 µg/mL | 0.0502 | 0.0304 | 0.0221

CO[C@@H]1[C@@H](OC(N)=O)[C@@H](O)[C@H](Oc2ccc3c(O)c(NC(=O)c4ccc(O)c(CC=C(C)C)c4)c(=O)oc3c2C)OC1(C)C [Novobiocin] + CN[C@@H]1[C@H](O)[C@H](NC)[C@H]2O[C@@]3(O)C(=O)C[C@@H](C)O[C@H]3O[C@@H]2[C@H]1O [Spectinomycin]
Settings | Bliss interaction score
B. subtilis 168 [1] | 0.075
S. aureus DSM 20231 | 0.0538
S. aureus Newman | 0.0698
S. pneumoniae D39V [2] | -0.0939

fitness, B. subtilis 168 [4]
Settings | first compound 0.0125 µg/mL | first compound 0.025 µg/mL | first compound 0.05 µg/mL
partner 2 µg/mL | 0.949 | 0.929 | 0.971
partner 4 µg/mL | 0.967 | 0.948 | ≥ 1
partner 8 µg/mL | 0.949 | 0.924 | 0.944

fitness, B. subtilis 168 [4], one replicate
Settings | first compound 0.125 µg/mL | first compound 0.25 µg/mL | first compound 0.5 µg/mL
partner 2 µg/mL | 0.898 | 0.779 | 0.526
partner 4 µg/mL | 0.945 | 0.867 | 0.649
partner 8 µg/mL | 0.963 | 0.957 | 0.577

CC[C@H](C)[C@H](N)C1=N[C@H](C(=O)N[C@@H](CC(C)C)C(=O)N[C@H](CCC(=O)O)C(=O)N[C@H](C(=O)N[C@H]2CCCCNC(=O)[C@H](CC(N)=O)NC(=O)[C@@H](CC(=O)O)NC(=O)[C@H](Cc3cnc[nH]3)NC(=O)[C@@H](Cc3ccccc3)NC(=O)[C@H]([C@@H](C)CC)NC(=O)[C@@H](CCCN)NC2=O)[C@@H](C)CC)CS1 [Bacitracin] + COc1cc(Cc2cnc(N)nc2N)cc(OC)c1OC [Trimethoprim]
main component drawn
Settings | Bliss interaction score
B. subtilis 168 [1] | 0.0858
S. aureus DSM 20231 | 0.013
S. aureus Newman | -0.08
S. pneumoniae D39V [2] | -0.0391

fitness, B. subtilis 168 [4], one replicate, main component drawn
Settings | partner 0.1 µg/mL | partner 0.2 µg/mL | partner 0.4 µg/mL | partner 1 µg/mL | partner 2 µg/mL
first compound 37.5 µg/mL | 0.925 | 0.65 | 0.508 | 0.462 | 0.24
first compound 75 µg/mL | 0.898 | 0.715 | 0.532 | 0.441 | 0.235
first compound 150 µg/mL | 0.875 | 0.71 | 0.499 | 0.348 | 0.219

fitness, B. subtilis 168 [4], main component drawn
Settings | first compound 37.5 µg/mL | first compound 75 µg/mL | first compound 150 µg/mL
partner 0.125 µg/mL | 0.615 | 0.593 | 0.338
partner 0.5 µg/mL | 0.518 | – | –

CO[C@@H]1[C@@H](OC(N)=O)[C@@H](O)[C@H](Oc2ccc3c(O)c(NC(=O)c4ccc(O)c(CC=C(C)C)c4)c(=O)oc3c2C)OC1(C)C [Novobiocin] + CN1C2=CC=CC=C2N=C3C1=CC=CC3=O [Pyocyanin]
Settings | Bliss interaction score
B. subtilis 168 [1] | -0.137
S. aureus DSM 20231 | 0.044
S. aureus Newman | 0.0744
S. pneumoniae D39V [2] | 0.116

fitness, B. subtilis 168 [4]
Settings | first compound 0.0125 µg/mL | first compound 0.025 µg/mL | first compound 0.05 µg/mL
partner 1.25 µg/mL | 0.881 | 0.916 | 0.929
partner 2.5 µg/mL | 0.847 | 0.827 | 0.858
partner 5 µg/mL | 0.733 | 0.71 | 0.749

fitness, B. subtilis 168 [4], one replicate
Settings | first compound 0.125 µg/mL | first compound 0.25 µg/mL | first compound 0.5 µg/mL
partner 1.25 µg/mL | 0.837 | 0.701 | 0.13
partner 2.5 µg/mL | 0.788 | 0.441 | 0.0992
partner 5 µg/mL | 0.454 | 0.229 | 0.164

CC[C@H](C)[C@H](N)C1=N[C@H](C(=O)N[C@@H](CC(C)C)C(=O)N[C@H](CCC(=O)O)C(=O)N[C@H](C(=O)N[C@H]2CCCCNC(=O)[C@H](CC(N)=O)NC(=O)[C@@H](CC(=O)O)NC(=O)[C@H](Cc3cnc[nH]3)NC(=O)[C@@H](Cc3ccccc3)NC(=O)[C@H]([C@@H](C)CC)NC(=O)[C@@H](CCCN)NC2=O)[C@@H](C)CC)CS1 [Bacitracin] + CCC[C@@H]1C[C@@H](C(=O)N[C@@H]([C@H]2O[C@H](SC)[C@H](O)[C@@H](O)[C@H]2O)[C@@H](C)O)N(C)C1 [Lincomycin]
main component drawn
Settings | Bliss interaction score
B. subtilis 168 [1] | 0.0963
S. aureus DSM 20231 | -0.046
S. aureus Newman | 0.104
S. pneumoniae D39V [2] | -0.0546

fitness, B. subtilis 168 [4], main component drawn
Settings | first compound 37.5 µg/mL | first compound 75 µg/mL | first compound 150 µg/mL
partner 0.1 µg/mL | 0.955 | 0.915 | 0.896
partner 0.2 µg/mL | 0.919 | 0.832 | 0.733
partner 0.4 µg/mL | 0.86 | 0.827 | –

fitness, B. subtilis 168 [4], one replicate, main component drawn
Settings | first compound 37.5 µg/mL | first compound 75 µg/mL | first compound 150 µg/mL
partner 0.8 µg/mL | 0.764 | 0.74 | 0.389
partner 1.6 µg/mL | 0.769 | 0.686 | 0.439
